Holding throughout (format): biochemical
One assay concerns the target T1, EGFR (Homo sapiens, UniProt P00533).
T1 construct: Kinases are expressed as either kinase domains or full length constructs; made in house
Kind of assay: Kinase inhibition assay (33P transfer), EGFR. The following applies: Table 2, kinase inhibition class; read-out: EGFR-1. In outline:
(§1)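 Each enzyme, purified to near homogeneity by affinity chromatography, was incubated with ATP carrying 33P and a substrate polymer fixed to the plate. Unbound label was removed with dilute phosphoric acid (0.5%) before adding scintillant and counting. Potency is given as the compound level cutting label uptake by 50%.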

Another assay has as its target T2, AKT (Homo sapiens, UniProt Q9Y243).
T2 construct: Kinases are expressed as either kinase domains or full length constructs; made in house
Kind of assay: Kinase inhibition assay (33P transfer), AKT. Particulars: Table 2, kinase inhibition class; read-out: AKT3-1. In outline:
(§2)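 Measured by scintillation: radiolabelled phosphate added by tagged recombinant kinases to poly(Glu,Tyr) 4:1 or poly(Arg,Ser) 3:1 attached to microtiter wells, counted once free label was washed away with 0.5% phosphoric acid.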

The target of a further assay is T3, Tek (Homo sapiens, UniProt Q02763).
T3 construct: Kinases are expressed as either kinase domains or full length constructs; made in house
T3 sequence (Q02763 23-1124, species assumed): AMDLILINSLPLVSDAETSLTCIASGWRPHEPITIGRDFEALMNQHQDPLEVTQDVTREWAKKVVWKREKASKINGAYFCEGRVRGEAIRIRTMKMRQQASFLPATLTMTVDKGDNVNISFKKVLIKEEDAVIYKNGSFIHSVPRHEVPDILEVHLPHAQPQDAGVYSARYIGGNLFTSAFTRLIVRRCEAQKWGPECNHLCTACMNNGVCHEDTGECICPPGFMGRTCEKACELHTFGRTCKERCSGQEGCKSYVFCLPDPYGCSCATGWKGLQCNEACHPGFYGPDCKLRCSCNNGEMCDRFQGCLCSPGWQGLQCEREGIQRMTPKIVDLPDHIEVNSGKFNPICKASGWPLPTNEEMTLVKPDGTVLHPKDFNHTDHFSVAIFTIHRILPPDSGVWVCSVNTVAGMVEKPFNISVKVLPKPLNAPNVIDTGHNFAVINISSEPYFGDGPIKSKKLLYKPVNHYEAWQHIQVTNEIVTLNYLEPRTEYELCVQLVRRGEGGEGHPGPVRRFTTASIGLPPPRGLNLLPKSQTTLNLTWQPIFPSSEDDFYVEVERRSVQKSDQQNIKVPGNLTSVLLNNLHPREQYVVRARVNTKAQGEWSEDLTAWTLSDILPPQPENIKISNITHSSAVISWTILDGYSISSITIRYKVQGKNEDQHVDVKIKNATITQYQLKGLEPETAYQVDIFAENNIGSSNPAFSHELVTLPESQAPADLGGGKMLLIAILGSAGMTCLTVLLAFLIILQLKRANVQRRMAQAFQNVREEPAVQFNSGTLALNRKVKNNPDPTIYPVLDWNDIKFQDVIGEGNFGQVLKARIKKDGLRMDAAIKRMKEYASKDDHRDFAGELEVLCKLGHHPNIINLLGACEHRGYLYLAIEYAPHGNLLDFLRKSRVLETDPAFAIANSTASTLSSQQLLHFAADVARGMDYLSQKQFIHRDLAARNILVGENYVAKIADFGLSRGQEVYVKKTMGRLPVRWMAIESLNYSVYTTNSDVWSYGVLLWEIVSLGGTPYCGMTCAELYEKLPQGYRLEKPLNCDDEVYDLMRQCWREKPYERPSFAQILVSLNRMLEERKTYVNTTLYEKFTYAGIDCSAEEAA
In words: Kinase inhibition assay (33P transfer), Tek. Particulars: read-out: Tek-1. In outline: as §1

For a further assay, the target named is T4, Lck (Homo sapiens, UniProt P06239).
T4 construct: Kinases are expressed as either kinase domains or full length constructs; made in house
T4 sequence (P06239 whole entry, species assumed, the tested form may be a part): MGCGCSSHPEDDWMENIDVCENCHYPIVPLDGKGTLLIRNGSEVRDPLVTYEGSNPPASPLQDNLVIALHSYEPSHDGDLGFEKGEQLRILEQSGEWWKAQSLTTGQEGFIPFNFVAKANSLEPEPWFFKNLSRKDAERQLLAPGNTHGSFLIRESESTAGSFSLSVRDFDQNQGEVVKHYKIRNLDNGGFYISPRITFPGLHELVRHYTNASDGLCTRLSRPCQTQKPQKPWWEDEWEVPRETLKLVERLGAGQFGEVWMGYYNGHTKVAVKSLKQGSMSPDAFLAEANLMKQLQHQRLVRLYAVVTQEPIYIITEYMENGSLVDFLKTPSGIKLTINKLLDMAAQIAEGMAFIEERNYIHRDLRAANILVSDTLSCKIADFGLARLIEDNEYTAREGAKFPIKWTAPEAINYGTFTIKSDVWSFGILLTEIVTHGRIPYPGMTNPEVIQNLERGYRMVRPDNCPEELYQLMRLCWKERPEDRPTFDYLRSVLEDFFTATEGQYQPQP
Kind of assay: Kinase inhibition assay (33P transfer), Lck. The following applies: Table 3; read-out: Lck-1. Summed up:
as §2

Another assay addresses T5, EPHB4 (Homo sapiens, UniProt P54760).
T5 construct: Kinases are expressed as either kinase domains or full length constructs; made in house
T5 sequence (P54760 16-987): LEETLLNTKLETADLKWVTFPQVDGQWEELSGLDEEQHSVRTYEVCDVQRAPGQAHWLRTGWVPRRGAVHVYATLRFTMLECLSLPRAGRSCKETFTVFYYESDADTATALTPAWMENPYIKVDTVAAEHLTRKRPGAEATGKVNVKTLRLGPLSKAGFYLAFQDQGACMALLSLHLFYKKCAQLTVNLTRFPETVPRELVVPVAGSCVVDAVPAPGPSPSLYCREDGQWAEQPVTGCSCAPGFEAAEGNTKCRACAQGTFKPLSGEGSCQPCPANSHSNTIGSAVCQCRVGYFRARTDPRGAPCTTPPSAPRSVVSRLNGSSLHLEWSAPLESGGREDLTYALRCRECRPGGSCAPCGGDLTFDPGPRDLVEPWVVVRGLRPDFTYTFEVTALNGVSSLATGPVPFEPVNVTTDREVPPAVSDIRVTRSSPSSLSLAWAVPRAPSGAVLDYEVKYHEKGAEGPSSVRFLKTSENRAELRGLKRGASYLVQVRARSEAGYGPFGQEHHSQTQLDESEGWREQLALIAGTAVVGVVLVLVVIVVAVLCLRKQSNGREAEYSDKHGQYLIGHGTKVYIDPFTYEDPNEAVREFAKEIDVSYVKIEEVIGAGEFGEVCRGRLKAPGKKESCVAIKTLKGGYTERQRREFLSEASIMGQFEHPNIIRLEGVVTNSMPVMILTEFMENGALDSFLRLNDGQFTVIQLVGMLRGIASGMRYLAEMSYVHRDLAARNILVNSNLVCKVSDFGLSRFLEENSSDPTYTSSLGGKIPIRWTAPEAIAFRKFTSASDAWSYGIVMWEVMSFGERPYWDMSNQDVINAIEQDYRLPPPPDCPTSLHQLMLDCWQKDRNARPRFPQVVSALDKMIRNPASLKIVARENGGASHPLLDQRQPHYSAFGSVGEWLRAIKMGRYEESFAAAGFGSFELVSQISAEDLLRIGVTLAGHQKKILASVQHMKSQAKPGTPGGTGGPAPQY
Kind of assay: Kinase inhibition assay (33P transfer), EPHB4. The following applies: read-out: EPHB4-1.

The target in the next assay is T6, Kdr (Homo sapiens, UniProt P35968).
T6 construct: Kinases are expressed as either kinase domains or full length constructs; made in house
T6 sequence (P35968 20-1356, species assumed): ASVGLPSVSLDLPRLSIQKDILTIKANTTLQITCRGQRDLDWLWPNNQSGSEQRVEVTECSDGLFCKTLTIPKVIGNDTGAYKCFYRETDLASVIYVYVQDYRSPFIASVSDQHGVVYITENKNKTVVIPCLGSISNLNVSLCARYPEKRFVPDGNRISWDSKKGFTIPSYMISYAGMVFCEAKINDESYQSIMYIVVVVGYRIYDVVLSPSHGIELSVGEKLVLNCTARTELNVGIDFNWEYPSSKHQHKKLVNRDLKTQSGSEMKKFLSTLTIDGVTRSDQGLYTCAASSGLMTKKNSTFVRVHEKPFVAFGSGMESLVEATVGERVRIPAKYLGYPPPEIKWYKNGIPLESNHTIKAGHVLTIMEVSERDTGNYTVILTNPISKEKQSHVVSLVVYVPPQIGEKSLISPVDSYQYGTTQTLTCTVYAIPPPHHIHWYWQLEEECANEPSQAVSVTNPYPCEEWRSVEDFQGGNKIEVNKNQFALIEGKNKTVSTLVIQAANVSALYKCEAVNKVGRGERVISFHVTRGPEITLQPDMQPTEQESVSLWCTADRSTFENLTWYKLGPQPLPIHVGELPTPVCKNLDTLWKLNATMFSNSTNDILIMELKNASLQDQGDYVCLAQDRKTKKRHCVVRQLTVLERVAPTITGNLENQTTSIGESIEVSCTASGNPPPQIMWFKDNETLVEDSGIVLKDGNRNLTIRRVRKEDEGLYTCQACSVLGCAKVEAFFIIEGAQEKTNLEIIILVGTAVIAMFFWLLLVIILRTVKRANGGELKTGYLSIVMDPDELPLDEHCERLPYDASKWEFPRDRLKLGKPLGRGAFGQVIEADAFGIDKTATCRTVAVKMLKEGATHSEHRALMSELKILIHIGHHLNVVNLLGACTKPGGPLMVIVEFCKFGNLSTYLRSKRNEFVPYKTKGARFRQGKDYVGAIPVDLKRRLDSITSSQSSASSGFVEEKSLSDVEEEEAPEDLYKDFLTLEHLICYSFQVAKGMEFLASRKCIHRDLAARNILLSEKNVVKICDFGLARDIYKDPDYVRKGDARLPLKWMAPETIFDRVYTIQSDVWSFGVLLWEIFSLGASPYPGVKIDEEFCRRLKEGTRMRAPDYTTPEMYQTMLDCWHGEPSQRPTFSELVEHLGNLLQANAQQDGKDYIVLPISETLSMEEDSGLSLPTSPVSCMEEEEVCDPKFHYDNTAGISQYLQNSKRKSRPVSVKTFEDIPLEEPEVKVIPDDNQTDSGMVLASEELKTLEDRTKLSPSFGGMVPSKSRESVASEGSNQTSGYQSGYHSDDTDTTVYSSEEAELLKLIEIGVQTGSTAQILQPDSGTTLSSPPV
In words: Kinase inhibition assay (33P transfer), Kdr. The following applies: Table 3; read-out: KDR-1. Summed up:
as §2

In the next assay the target is T7, Zap-70 (Homo sapiens, UniProt P43403).
T7 construct: Kinases are expressed as either kinase domains or full length constructs; made in house
T7 sequence (P43403 1-619): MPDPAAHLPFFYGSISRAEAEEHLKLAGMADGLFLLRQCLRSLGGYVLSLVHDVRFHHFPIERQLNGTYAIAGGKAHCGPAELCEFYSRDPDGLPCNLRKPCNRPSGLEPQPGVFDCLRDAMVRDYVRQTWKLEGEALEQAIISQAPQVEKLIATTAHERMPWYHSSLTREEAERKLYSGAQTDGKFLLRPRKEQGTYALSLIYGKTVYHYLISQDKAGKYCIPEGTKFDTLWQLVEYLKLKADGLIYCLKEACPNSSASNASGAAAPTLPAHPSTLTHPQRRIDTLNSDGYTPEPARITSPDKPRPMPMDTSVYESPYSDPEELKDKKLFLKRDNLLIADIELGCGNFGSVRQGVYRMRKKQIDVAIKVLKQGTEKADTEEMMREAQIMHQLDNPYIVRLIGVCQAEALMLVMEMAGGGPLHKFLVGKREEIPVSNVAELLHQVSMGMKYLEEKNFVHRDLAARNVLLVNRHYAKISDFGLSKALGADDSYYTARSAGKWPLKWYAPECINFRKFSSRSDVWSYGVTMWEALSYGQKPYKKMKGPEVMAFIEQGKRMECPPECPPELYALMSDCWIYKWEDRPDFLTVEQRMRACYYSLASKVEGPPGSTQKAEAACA
Kind of assay: Kinase inhibition assay (33P transfer), Zap-70. Particulars: Table 3; read-out: Zap-1. In outline:
as §2

A further assay concerns the target T8, IGFR-1 (Homo sapiens, UniProt P08069).
T8 construct: Kinases are expressed as either kinase domains or full length constructs; made in house
Kind of assay: Kinase inhibition assay (33P transfer), IGFR-1. The following applies: Table 2, kinase inhibition class.

Another assay deals with T9, c-Met (Homo sapiens, UniProt P08581).
T9 construct: Kinases are expressed as either kinase domains or full length constructs; made in house
In words: Kinase inhibition assay (33P transfer), c-Met. Particulars: Table 2, kinase inhibition class; read-out: Met-1. In outline: as §1

For a further assay, the target named is T10, Itk (Homo sapiens, UniProt Q08881).
T10 construct: Kinases are expressed as either kinase domains or full length constructs; made in house
T10 sequence (Q08881 1-620): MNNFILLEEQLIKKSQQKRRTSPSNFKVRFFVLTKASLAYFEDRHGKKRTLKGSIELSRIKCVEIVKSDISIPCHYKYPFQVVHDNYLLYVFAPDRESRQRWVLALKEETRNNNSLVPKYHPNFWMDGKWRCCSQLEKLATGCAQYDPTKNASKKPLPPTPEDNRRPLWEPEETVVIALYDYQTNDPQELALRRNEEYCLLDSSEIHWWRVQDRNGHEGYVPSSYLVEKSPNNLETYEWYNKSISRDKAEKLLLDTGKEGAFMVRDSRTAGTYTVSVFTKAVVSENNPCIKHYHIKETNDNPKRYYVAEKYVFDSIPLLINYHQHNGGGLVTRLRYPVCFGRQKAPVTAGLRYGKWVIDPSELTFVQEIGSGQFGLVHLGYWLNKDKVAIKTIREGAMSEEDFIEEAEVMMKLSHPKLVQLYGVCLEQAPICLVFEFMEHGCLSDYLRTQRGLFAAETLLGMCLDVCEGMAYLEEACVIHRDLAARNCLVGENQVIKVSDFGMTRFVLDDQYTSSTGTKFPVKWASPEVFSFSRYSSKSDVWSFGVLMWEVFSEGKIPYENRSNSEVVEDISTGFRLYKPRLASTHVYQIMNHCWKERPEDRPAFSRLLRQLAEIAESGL
In words: Kinase inhibition assay (33P transfer), Itk. The following applies: Table 3; read-out: Itk-1. In outline:
as §1

pIC50: −log10 of the molar value.

T8 sequence (P08069 31-1367): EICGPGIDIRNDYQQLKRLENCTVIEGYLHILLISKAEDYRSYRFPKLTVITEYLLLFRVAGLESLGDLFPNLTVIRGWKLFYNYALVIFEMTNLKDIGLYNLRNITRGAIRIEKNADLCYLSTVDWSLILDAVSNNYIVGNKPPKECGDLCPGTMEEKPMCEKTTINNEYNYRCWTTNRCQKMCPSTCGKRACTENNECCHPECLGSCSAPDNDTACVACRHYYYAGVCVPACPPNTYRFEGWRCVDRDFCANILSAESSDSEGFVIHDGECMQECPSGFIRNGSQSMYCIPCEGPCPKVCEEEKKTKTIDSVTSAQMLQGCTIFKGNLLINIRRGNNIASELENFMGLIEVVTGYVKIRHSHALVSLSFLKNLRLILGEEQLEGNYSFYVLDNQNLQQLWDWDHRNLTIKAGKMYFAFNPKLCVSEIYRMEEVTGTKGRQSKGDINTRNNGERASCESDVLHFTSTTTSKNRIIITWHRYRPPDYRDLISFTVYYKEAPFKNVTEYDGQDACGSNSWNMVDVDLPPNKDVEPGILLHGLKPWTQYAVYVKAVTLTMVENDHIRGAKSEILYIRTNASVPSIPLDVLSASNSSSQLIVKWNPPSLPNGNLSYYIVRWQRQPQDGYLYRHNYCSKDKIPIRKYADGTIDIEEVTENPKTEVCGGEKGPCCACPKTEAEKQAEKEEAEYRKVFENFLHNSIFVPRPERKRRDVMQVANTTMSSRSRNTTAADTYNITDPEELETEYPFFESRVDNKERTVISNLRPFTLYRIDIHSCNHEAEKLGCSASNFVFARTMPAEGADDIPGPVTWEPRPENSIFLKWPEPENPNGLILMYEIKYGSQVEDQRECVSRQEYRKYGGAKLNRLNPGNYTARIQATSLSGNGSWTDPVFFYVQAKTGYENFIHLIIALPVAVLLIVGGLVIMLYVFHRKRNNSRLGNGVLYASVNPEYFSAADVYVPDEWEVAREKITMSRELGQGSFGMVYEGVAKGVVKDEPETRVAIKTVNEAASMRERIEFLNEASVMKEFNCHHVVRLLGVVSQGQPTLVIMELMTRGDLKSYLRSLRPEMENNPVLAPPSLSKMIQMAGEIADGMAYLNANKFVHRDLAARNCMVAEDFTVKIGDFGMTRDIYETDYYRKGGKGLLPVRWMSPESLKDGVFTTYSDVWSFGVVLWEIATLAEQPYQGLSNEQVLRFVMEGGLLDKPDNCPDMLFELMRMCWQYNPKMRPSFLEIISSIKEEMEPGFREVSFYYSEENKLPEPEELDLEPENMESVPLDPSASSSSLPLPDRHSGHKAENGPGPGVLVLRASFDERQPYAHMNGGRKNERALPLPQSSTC
T2 sequence (Q9Y243 whole entry, the tested form may be a part): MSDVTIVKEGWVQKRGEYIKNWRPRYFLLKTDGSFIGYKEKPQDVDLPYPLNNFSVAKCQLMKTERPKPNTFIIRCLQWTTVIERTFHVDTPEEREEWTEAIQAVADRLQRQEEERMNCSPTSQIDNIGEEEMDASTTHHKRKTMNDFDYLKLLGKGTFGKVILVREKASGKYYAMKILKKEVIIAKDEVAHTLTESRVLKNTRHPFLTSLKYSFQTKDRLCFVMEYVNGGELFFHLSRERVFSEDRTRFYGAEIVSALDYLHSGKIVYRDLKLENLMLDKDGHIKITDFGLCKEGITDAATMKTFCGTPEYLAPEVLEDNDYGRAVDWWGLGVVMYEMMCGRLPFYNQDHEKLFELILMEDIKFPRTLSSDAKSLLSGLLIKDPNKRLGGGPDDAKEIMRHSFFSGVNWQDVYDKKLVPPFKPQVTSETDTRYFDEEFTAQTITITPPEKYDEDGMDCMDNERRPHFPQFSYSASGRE

For `COc1cc(Nc2ncnc(Nc3c(C)n(C)n(-c4ccccc4)c3=O)n2)cc(OC)c1OC` [Compound 256], the pIC50 is less than 5.01 at EGFR; less than 5.01 at AKT; less than 5.01 on Tek; less than 5.01 on Lck; less than 5.01 on EPHB4; 5.01 to 5.12 at Kdr. In addition, the pIC50 at Zap-70, against IGFR-1, on c-Met and on Itk was less than 5.01 in each case.
With `COc1cc(Nc2ncnc(N(CC(=O)OC(C)(C)C)c3ccc(Cl)cc3)n2)cc(OC)c1OC` [Compound 291], the pIC50 is 5.32 to 6.10 at EGFR; less than 5.05 at AKT; 5.05 to 5.16 on Tek; 5.16 to 5.32 at Lck; 5.05 to 5.16 on EPHB4; 5.16 to 5.32 on Kdr. The pIC50 on Zap-70, at IGFR-1, at c-Met and on Itk was less than 5.05 in each case.
As to `CCOc1ccc(Nc2ncnc(-n3c(N)nc4ccccc43)n2)cc1OCC` [Compound 299], the pIC50 was 5.05 to 5.21 at EGFR; 5.21 to 5.99 on AKT; 5.05 to 5.21 at Tek; 4.94 to 5.05 on Lck; less than 4.94 on EPHB4; 5.21 to 5.99 at Kdr. In addition, the pIC50 was 5.21 to 5.99 on Zap-70, 5.05 to 5.21 at IGFR-1, 5.21 to 5.99 at c-Met and less than 4.94 at Itk.
With `COc1cc(Nc2ncnc(Nc3ccc(F)cc3)n2)cc(OC)c1OC` [Compound 303], the pIC50 at EGFR is 5.19 to 5.97; at AKT, less than 4.92; at Tek, 5.19 to 5.97; on Lck, 5.19 to 5.97; at EPHB4, 4.92 to 5.03; on Kdr, 5.19 to 5.97. Moreover, the pIC50 on Zap-70 was less than 4.92; against IGFR-1, 5.19 to 5.97; at c-Met it was less than 4.92; on Itk it was less than 4.92.
As for `COc1cc(Nc2ncnc(N(CC(=O)OC(C)(C)C)c3ccc4c(c3)OCO4)n2)cc(OC)c1OC` [Compound 309], the pIC50 on EGFR is 5.16 to 5.33; at AKT it was less than 5.06; on Tek, less than 5.06; on Lck it was 5.06 to 5.16; at EPHB4, less than 5.06; on Kdr it was 5.06 to 5.16. The pIC50 at Zap-70, on IGFR-1, on c-Met and on Itk was less than 5.06 throughout.
As to `COc1ccc(Nc2ncnc(N(CC(=O)OC(C)(C)C)c3ccc4c(c3)OCO4)n2)cc1OC` [Compound 310], the pIC50 is 5.30 to 6.08 on EGFR; less than 5.03 at AKT; less than 5.03 on Tek; 5.30 to 6.08 at Lck; less than 5.03 at EPHB4; 5.03 to 5.14 on Kdr. Moreover, the pIC50 at Zap-70 was less than 5.03; against IGFR-1, 5.30 to 6.08; at c-Met, less than 5.03; at Itk, less than 5.03.
As for `COc1cc(OC)cc(-c2nnc(Nc3ncnc(Nc4cc(OC)c(OC)c(OC)c4)n3)[nH]2)c1` [Compound 312], the pIC50 at EGFR, at AKT, at Tek, on Lck, on EPHB4 and at Kdr was less than 5.03 each time. The pIC50 on Zap-70, at IGFR-1, at c-Met and on Itk was less than 5.03 each time.
On to `COc1cc(Nc2ncnc(Nc3nc4ccc(F)cc4s3)n2)cc(OC)c1OC` [Compound 317], for which the pIC50 on EGFR is less than 4.98; on AKT, less than 4.98; on Tek it was 4.98 to 5.09; at Lck, 5.25 to 6.03; on EPHB4, 5.09 to 5.25; at Kdr it was 5.25 to 6.03. In addition, the pIC50 is less than 4.98 at Zap-70, 5.25 to 6.03 on IGFR-1, 5.25 to 6.03 at c-Met and less than 4.98 on Itk.
In the case of `COCCOc1ccc(Nc2ncnc(Nc3ccc(C)c(F)c3)n2)cc1OCCOC` [Compound 322], the pIC50 on EGFR is less than 4.99; on AKT it was less than 4.99; on Tek, less than 4.99; on Lck, less than 4.99; on EPHB4, less than 4.99; on Kdr it was 5.27 to 6.04. In addition, the pIC50 on Zap-70, on IGFR-1, on c-Met and on Itk was less than 4.99 throughout.
Consider `COC(=O)c1ccc(Nc2ncnc(Nc3cc(-c4ccco4)n[nH]3)n2)cc1` [Compound 366], for which the pIC50 on EGFR is less than 4.92; at AKT, less than 4.92; at Tek, less than 4.92; at Lck, 5.03 to 5.20; at EPHB4, 5.20 to 5.97; at Kdr, less than 4.92. The pIC50 on Zap-70 was 5.03 to 5.20; at IGFR-1, 5.20 to 5.97; at c-Met it was less than 4.92; on Itk it was less than 4.92.
Consider `COc1cc(Nc2ncnc(Nc3[nH]ncc3-c3cccs3)n2)cc(OC)c1OC` [Compound 368], for which the pIC50 on EGFR is less than 4.98; on AKT, less than 4.98; on Tek it was less than 4.98; at Lck, 4.98 to 5.08; on EPHB4, less than 4.98; on Kdr, less than 4.98. Moreover, the pIC50 on Zap-70, at IGFR-1, on c-Met and at Itk was less than 4.98 throughout.

For the origin of these results see patent US7074789B2, “Kinase inhibitors” (Amgen Inc., priority 1999, dated 2006).
